From patent publication EP1204866B1, “IMMUNOASSAY FOR PESTICIDES AND THEIR DEGRADATION PRODUCTS” (priority 1999, dated 2001) come the findings set out here.

One test deals with HYB 273-1. The experiment in a line: competitive ELISA (immunoassay) for BAM with monoclonal antibody on hapten-coated microtitre plates. Type of test: binding, mice. As to the method: The cross reactivity of an assay is a measure of its specificity for the analyte relative to similar or related compounds. It is useful in assessing its accuracy in crude samples with several potential haptens. Standard curves based on the 4-parameter-logistic equation (eq 1) were generated for a series of analytes (Table 3) in the range 100 to 0 mg/L (10-fold titrations). The IC50 value (C*) for each analyte was then compared with the IC50 of BAM (C) in equation 3. CR = ((C)/(C*)) × 100% [formula] • CR: cross-reactivity [%] • C: value of IC50 for BAM [µg/L] • C*: value of IC50 for cross-reacting analyte [µg/L]
Standards were used to generate comparative standard curves. The standards were added to hapten-coated plates followed by a known amount of antibody, such as HYB 273-1 in buffer. The plate was incubated for 1 hour, washed, and incubated with RαM^HRP, an enzyme label and incubated for 1 hour. After extensive washing, the enzyme substrate TMB-Plus was added. The colour development was stopped using acid and the absorbance read at 450 nm.
The standards were used to generate a semi-log graph based on the 4-parameter-logistic method (Rodbard, 1974: equation 1). Y = ((A-D))/([1+(((X)/(C)))^B]) + D [formula] • X: concentration of analyte (µg/L). • Y: absorbance at 450 nm (A450). • A: maximum absorbance (upper asymptote). • D: minimum absorbance (lower asymptote). • C: midpoint between A and D. Extrapolation to x-axis yields the value of IC50 (µg/L). • B: slope for the transition between A and D
The signals were normalised according to equation 2 %(B)/(B0) = (A-Axs)/(A0 -Axs) × 100 [formula] • B : concentration of bound antibody and • B0 : concentration of bound antibody in the absence of analyte.
On the plot, 100 % corresponds to the absorption of the zero control (A0: 0 µg/L) and 0 % corresponds to the absorption of an excess control (Axs: 100 µg/L). The normalised signals were plotted vs. BAM concentration and the four-parameter-logistic equation (eq 1) was fitted to the experimental points.
i) Passive adsorption: A MaxiSorp™ microtitre plate was filled by a stationary dispensor with 200 µL/well BAM-OA (16.7 ng/mL) in coating buffer. After coating over night at 4°C the plate was washed 4 times with de-ionised water and dried 30 min at 37°C. The plate was either used immediately or sealed with tape lid and stored at room temperature in the dark until use.
A PolySorp™microtitre plate was filled by a stationary dispensor with 200 µL/well BAM-OA-AQ (50 ng/mL) in 0.1 × PBS. After being exposed to uv-light (300-400 nm) at 34°C for 30 min, the plate was washed 4 times with de-ionised water and dried 30 min at 37°C. […]
Standards (in Milli-Q® water) and samples (150 µL) were added to the hapten-coated plate followed by the addition of 50 µL antibody (HYB 273-1) diluted in 10 × PBST (66.7 ng/mL). […] The colour development was stopped after 10 minutes by adding 50 µL/well 1 M H2SO4 and the absorbance was read at 450 nm. […] Y = ((A-D))/([1+(((X)/(C)))^B]) + D [formula] • X: concentration of analyte (µg/L). • Y: absorbance at 450 nm (A450). • A: maximum absorbance (upper asymptote). • D: minimum absorbance (lower asymptote). • C: midpoint between A and D. Extrapolation to x-axis yields the value of IC50 (µg/L). • B: slope for the transition between A and D
These calculations were executed automatically by the software package SOFTmax® PRO Version 2.2 upon reading the microtitre plates. […]
(In general: In an ELISA, binding on a coated surface is turned into a signal by an enzyme label.)

Test [1] deals with Balb/c×CF1 F1-hybrid mice. The experiment in a line: immunisation of mice with hapten-polymer carrier complex and generation of monoclonal antibodies. Type of test: in vivo. Conditions: hapten bound to polymer carrier (ovalbumin). As to the method:
Live mice were primed for immunisation by an intraperitoneal injection of live BCG-vaccine one month before immunisation. The antigen (hapten-OA complex), once adsorbed onto Al(OH)3, was injected intraperitonally and test bleedings were collected. When antibody titre's exceeded 1:2000, mice were considered ready for fusion and the method described by Köhler and Milstein (1975) was employed with minor modifications. Monoclonal antibodies were selected on basis of titre, affinity and specificity. Selected clones were recloned until monoclonality and stored frozen at -80 °C.
Ten to twelve weeks old female Balb/c×CF1 F1-hybrid mice were used for immunisation. 5 One month before immunisation they were primed with 0.2 mL live BCG-vaccine intraperitonally. The antigen ([…] carrier/immunogen) was absorbed onto Al(OH)3 as an adjuvant. The total volume of vaccine per immunisation was 200 µL, containing […] of antigen and […] of adjuvant. The antigen was injected intraperitonally with 2-weeks intervals. Test bleedings were collected 10 days after immunisation and assayed in ELISA.
When antibody titre's exceeded 1:2000, mice were regarded ready for fusion. The procedure as described by Köhler and Milstein (1975) was employed with minor modifications. Monoclonal antibodies were selected on basis of titre, affinity and specificity. […]

“And” between values parts separate entries of the source, which are not always exact repeats. Identical values can stand only once. “Also recorded” adds a separate entry of the source.

The molecule `NC(=O)c1ccc(Cl)cc1Cl` [2,4-dichlorobenzamide] displayed a cross-reactivity in the test with HYB 273-1 (IC50 of BAM divided by IC50 of analyte x 100, analytes assayed up to 100 mg/L, antibody HYB 273-1) of 3.8%.

Take “N-(5-carboxypentyl)-2,4-dichloro-3-amido aniline [EQ-0031]”: the immunoresponse on immunisation entry in test [1] was “good responses were generated and several clones were produced; also recorded: generated good immunoresponse”.

In the case of `NC(=O)c1c(Cl)cccc1Cl` [BAM, 2,6-dichlorobenzamide], the IC50 was 0.189 ng/mL and 0.19 ng/mL in the test on HYB 273-1 (covalently immobilised (photocoupled) plates, PolySorp, BAM-OA-AQ, Figure 3A); 0.144 ng/mL and 0.14 ng/mL with HYB 273-1 (passively adsorbed plates, MaxiSorp, BAM-OA, Figure 3B). Besides, the “DL15 (detection limit, analyte concentration giving a 15 % decrease in maximum signal)” value in the test with HYB 273-1 (photo catalysed covalent immobilisation, Figure 3A) is recorded as 0.02 µg/L; in the test on HYB 273-1 (surfaces immobilised by passive adsorption, Figure 3B) it was 0.045 µg/L.

Usually IC50 stands for the concentration needed to halve the response being measured. A low value points to inhibition by little substance.
